Measured values from ChEMBL document CHEMBL1649544, “Novel ABC transporter gene, vga(C), located on a multiresistance plasmid from a porcine methicillin-resistant Staphylococcus aureus ST398 strain” (2009).
≈ marks a conversion by molar mass, not a printed value.

How the values were obtained:
Assay type in all cases: functional
Staphylococcus aureus [1] = test: Antibacterial activity against Staphylococcus aureus RN4220 by CLSI method
Staphylococcus aureus [2] = test: Antibacterial activity against Staphylococcus aureus RN4220 harboring aadD, tet(L), dfrK and vga(C) gene by CLSI method
Staphylococcus aureus [3] = test: Antibacterial activity against Staphylococcus aureus RN4220 harboring tet(L), dfrK gene by CLSI method
Staphylococcus aureus [4] = test: Antibacterial activity against Staphylococcus aureus RN4220 harboring aadD and tet(L) gene by CLSI method

SMILES	MIC (Staphylococcus aureus [1])	MIC (Staphylococcus aureus [2])	MIC (Staphylococcus aureus [3])	MIC (Staphylococcus aureus [4])
CN(C)[C@@H]1C(O)=C(C(N)=O)C(=O)[C@@]2(O)C(O)=C3C(=O)c4c(O)cccc4[C@@](C)(O)[C@H]3C[C@@H]12 [TETRACYCLINE]	0.06 µg/mL (≈ 0.135 µM)	64 µg/mL (≈ 144 µM)	64 µg/mL (≈ 144 µM)	64 µg/mL (≈ 144 µM)
CCC[C@@H]1C[C@@H](C(=O)N[C@@H]([C@H]2O[C@H](SC)[C@H](O)[C@@H](O)[C@H]2O)[C@H](C)Cl)N(C)C1 [CLINDAMYCIN]	≤ 0.12 µg/mL	2 µg/mL (≈ 4.71 µM)	–	–
NC[C@@H]1O[C@H](O[C@H]2[C@@H](O)[C@H](O[C@@H]3[C@@H](O)[C@H](N)C[C@H](N)[C@H]3O[C@H]3O[C@H](CN)[C@@H](O)[C@H](O)[C@H]3N)O[C@@H]2CO)[C@H](N)[C@@H](O)[C@@H]1O [FRAMYCETIN]	≤ 1 µg/mL	64 µg/mL (≈ 104 µM)	–	64 µg/mL (≈ 104 µM)
CC[C@H]1OC(=O)[C@H](C)[C@@H](O[C@H]2C[C@@](C)(OC)[C@@H](O)[C@H](C)O2)[C@H](C)[C@@H](O[C@@H]2O[C@H](C)C[C@H](N(C)C)[C@H]2O)[C@](C)(O)C[C@@H](C)C(=O)[C@H](C)[C@@H](O)[C@]1(C)O [ERYTHROMYCIN]	0.25 µg/mL (≈ 0.341 µM)	0.25 µg/mL (≈ 0.341 µM)	0.25 µg/mL (≈ 0.341 µM)	0.25 µg/mL (≈ 0.341 µM)
C=C[C@]1(C)C[C@@H](OC(=O)CSC(C)(C)CNC(=O)[C@H](N)C(C)C)[C@]2(C)[C@H](C)CC[C@]3(CCC(=O)[C@H]32)[C@@H](C)[C@@H]1O [VALNEMULIN]	0.03 µg/mL (≈ 0.0531 µM)	≥ 128 µg/mL	0.03 µg/mL (≈ 0.0531 µM)	0.03 µg/mL (≈ 0.0531 µM)
CCC[C@@H]1C[C@@H](C(=O)N[C@@H]([C@H]2O[C@H](SC)[C@H](O)[C@@H](O)[C@H]2O)[C@@H](C)O)N(C)C1 [LINCOMYCIN]	1 µg/mL (≈ 2.46 µM)	64 µg/mL (≈ 157 µM)	1 µg/mL (≈ 2.46 µM)	1 µg/mL (≈ 2.46 µM)
CC1=C\[C@@H](O)CC(=O)Cc2nc(co2)C(=O)N2CCC=C2C(=O)O[C@H](C(C)C)[C@H](C)/C=C/C(=O)NC\C=C\1 [VIRGINIAMYCIN FACTOR M1]	4 µg/mL (≈ 7.61 µM)	32 µg/mL (≈ 60.9 µM)	4 µg/mL (≈ 7.61 µM)	4 µg/mL (≈ 7.61 µM)
C=C[C@]1(C)C[C@@H](OC(=O)CSCCN(CC)CC)[C@]2(C)[C@H](C)CC[C@]3(CCC(=O)[C@H]32)[C@@H](C)[C@@H]1O [TIAMULIN]	0.06 µg/mL (≈ 0.122 µM)	≥ 128 µg/mL	0.06 µg/mL (≈ 0.122 µM)	0.06 µg/mL (≈ 0.122 µM)
COc1cc(Cc2cnc(N)nc2N)cc(OC)c1OC [TRIMETHOPRIM]	0.5 µg/mL (≈ 1.72 µM)	≥ 512 µg/mL	≥ 512 µg/mL	0.5 µg/mL (≈ 1.72 µM)
NC[C@H]1O[C@H](O[C@H]2[C@H](O)[C@@H](O[C@H]3O[C@H](CO)[C@@H](O)[C@H](N)[C@H]3O)[C@H](N)C[C@@H]2N)[C@H](O)[C@@H](O)[C@@H]1O [KANAMYCIN]	4 µg/mL (≈ 8.26 µM)	32 µg/mL (≈ 66 µM)	4 µg/mL (≈ 8.26 µM)	32 µg/mL (≈ 66 µM)
CC[C@@H]1CCN[C@H](C(=O)N[C@@H]([C@H]2O[C@H](SC)[C@H](O)[C@@H](O)[C@H]2O)[C@H](C)Cl)C1 [PIRLIMYCIN]	0.25 µg/mL (≈ 0.608 µM)	4 µg/mL (≈ 9.73 µM)	0.25 µg/mL (≈ 0.608 µM)	0.25 µg/mL (≈ 0.608 µM)
